Results from patent publication US20250215039A1, “NUCLEOSIDES FOR TREATING CANCER” (PRIMEFOUR THERAPEUTICS, INC., priority 2022, published 2025).
pIC50: −log10 of the molar value. Where two headings read alike, the source gives them in different places.

System: cancer cell lines
Test: Cancer cell proliferation activity (CellTiterGlo, 72 h)
Type: cell-based
Conditions: 72 h, 72 h, read-out: IC50
In short: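 Cells seeded overnight at 37 °C, then dosed with compound at 0.1% final DMSO and incubated 72 h at 37 °C (5% or 10% CO2 by medium).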

Question: What does the source list for `CC[C@]1(CO)O[C@@H](n2cnc3c(N)nc(F)nc32)C[C@@H]1O` [Cpd. No. 1, (2R,3S,5R)-5-(6-amino-2-fluoro-9H-purin-9-yl)-2-ethyl-2-(hydroxymethyl)tetrahydrofuran-3-ol]?
Answer: pIC50 (5637 cell line (bladder)): 6.06; pIC50 (CLS439 cell line (bladder)): < 4.30; pIC50 (HS729 cell line (muscle)): 5.91; pIC50 (JAR cell line (placenta)): 6.36; pIC50 (U20S cell line, bone): 6.08; pIC50 (Homo sapiens, 22Rv1, 72 h, 22RV1 cell line (prostate)): 5.73; pIC50 (Homo sapiens, 786-0, 72 h, 786O cell line (kidney)): 6.21; pIC50 (Homo sapiens, A204, 72 h, A204 cell line (muscle)): 6.26; pIC50 (Homo sapiens, A549, 72 h, A549 cell line, lung): < 4.30; pIC50 (Homo sapiens, A673, 72 h, A673 cell line (bone)): 5.59; pIC50 (Homo sapiens, A2780, 72 h, A2780 cell line (ovary)): 6.04; pIC50 (Homo sapiens, A-375, 72 h, A375 cell line (skin)): 6.28; pIC50 (Homo sapiens, A-431, 72 h, A431 cell line (skin)): 6.28; pIC50 (Homo sapiens, ACHN, ACHN cell line (kidney)): < 4.30; pIC50 (Homo sapiens, ASPC1, 72 h, ASPC1 cell line (pancreas)): 6.33; pIC50 (Homo sapiens, BT-20, 72 h, BT20 cell line (breast)): 6.26; pIC50 (Homo sapiens, C-33-A, C33A cell line, endometrial): 6.02; pIC50 (Homo sapiens, CAKI-1, 72 h, CAKI1 cell line (kidney)): 7.22; pIC50 (Homo sapiens, COLO 205, 72 h, COLO205 cell line (colon)): 5.97; pIC50 (Homo sapiens, COLO-678, 72 h, COLO678 cell line (colon)): < 4.30; pIC50 (Homo sapiens, Ca-Ski, CASKI cell line, endometrial): 6.51; pIC50 (Homo sapiens, Caco-2, 72 h, CACO2 cell line (colon)): 5.98; pIC50 (Homo sapiens, Calu-6, 72 h, CALU6 cell line (lung)): 6.19; pIC50 (Homo sapiens, DLD-1, 72 h, DLD1 cell line (colon)): 5.68; pIC50 (Homo sapiens, DU-145, 72 h, DU145 cell line (prostate)): 6.72; pIC50 (Homo sapiens, EFO-21, 72 h, EFO21 cell line (ovary)): 6.28; pIC50 (Homo sapiens, EJ-28, 72 h, EJ28 cell line (bladder)): 6.31; pIC50 (Homo sapiens, Granta-519, 72 h, GRANTA-519 cell line (hematological)): < 4.30; pIC50 (Homo sapiens, HCT-15, 72 h, HCT15 cell line (colon)): 5.56; pIC50 (Homo sapiens, HCT-116, 72 h, HCT116 cell line (colon)): 6.09; pIC50 (Homo sapiens, HEK293, 72 h, HEK293 cell line (kidney)): 6.15; pIC50 (Homo sapiens, HL-60, 72 h, HL-60 cell line (hematological)): 6.08; pIC50 (Homo sapiens, HT-29, 72 h, HT29 cell line (colon)): 6.28; pIC50 (Homo sapiens, HT-1080, 72 h, HT1080 cell line (connective tissue)): < 4.30; pIC50 (Homo sapiens, HeLa, HELA cell line, endometrial): 5.97; pIC50 (Homo sapiens, HepG2, 72 h, HEPG2 cell line (liver)): 6.17; pIC50 (Homo sapiens, Hs-578T, HS578T cell line, breast): 6.07; pIC50 (Homo sapiens, IGROV-1, 72 h, IGROV1 cell line (ovary)): 6.42; pIC50 (Homo sapiens, IMR-90, 72 h, IMR90 cell line, lung): 6.19; pIC50 (Homo sapiens, J82, 72 h, J82 cell line (bladder)): 6.27; pIC50 (Homo sapiens, JEG-3, 72 h, JEG3 cell line (placenta)): 6.17; pIC50 (Homo sapiens, JIMT-1, 72 h, JIMT1 cell line (breast)): 6.80; pIC50 (Homo sapiens, K562, 72 h, K-562 cell line (hematological)): < 4.30; pIC50 (Homo sapiens, Kasumi 1, 72 h, KASUMI-1 cell line (hematological)): 6.82; pIC50 (Homo sapiens, L-363, 72 h, L-363 cell line (hematological)): 6.24; pIC50 (Homo sapiens, LoVo, LOVO cell line (colon)): 6.54; pIC50 (Homo sapiens, MCF7, 72 h, MCF7 cell line (breast)): < 4.30; pIC50 (Homo sapiens, MDA-MB-231, 72 h, MDAMB231 cell line (breast)): < 4.30; pIC50 (Homo sapiens, MDA-MB-435, 72 h, MDAMB435 cell line (skin)): 5.76; pIC50 (Homo sapiens, MDA-MB-436, 72 h, MDAMB436 cell line (breast)): 6.43; pIC50 (Homo sapiens, MDA-MB-468, 72 h, MDAMB468 cell line (breast)): 6.16; pIC50 (Homo sapiens, MG-63, 72 h, MG63 cell line (bone)): < 4.30; pIC50 (Homo sapiens, MHH-ES-1, 72 h, MHHES1 cell line (bone)): 6.22; pIC50 (Homo sapiens, MIA PaCa-2, 72 h, MIAPACA2 cell line (pancreas)): < 4.30; pIC50 (Homo sapiens, MINO, MINO cell line (hematological)): 6.60; pIC50 (Homo sapiens, MV4-11, 72 h, MV4-11 cell line (hematological)): 6.77; pIC50 (Homo sapiens, NCI-H23, 72 h, NCI-H23 cell line (lung)): 6.08; pIC50 (Homo sapiens, NCI-H82, 72 h, NCIH82 cell line (lung)): 6.21; pIC50 (Homo sapiens, NCI-H292, 72 h, NCIH292 cell line (lung)): < 4.30; pIC50 (Homo sapiens, NCI-H460, 72 h, NCIH460 cell line (lung)): 6.01; pIC50 (Homo sapiens, OVCAR-3, 72 h, OVCAR3 cell line (ovary)): 6.59; pIC50 (Homo sapiens, OVCAR-4, 72 h, OVCAR4 cell line (ovary)): 6.02; pIC50 (Homo sapiens, PANC-1, 72 h, PANC1 cell line (pancreas)): < 4.30; pIC50 (Homo sapiens, PC-3, 72 h, PC3 cell line (prostate)): 6.06; pIC50 (Homo sapiens, PLC-PRF-5, 72 h, PLCPRF5 cell line (liver)): 5.49; pIC50 (Homo sapiens, Panc1005, 72 h, PANC1005 cell line (pancreas)): 6.36; pIC50 (Homo sapiens, RD, RD cell line (muscle)): 5.84; pIC50 (Homo sapiens, Ramos, RAMOS cell line (hematological)): 6.03; pIC50 (Homo sapiens, SAOS-2, 72 h, SAOS2 cell line (bone)): 6.19; pIC50 (Homo sapiens, SF-268, 72 h, SF268 cell line (brain)): < 4.30; pIC50 (Homo sapiens, SF-295, 72 h, SF295 cell line (brain)): 5.85; pIC50 (Homo sapiens, SK-BR-3, 72 h, SKBR3 cell line (breast)): 6.82; pIC50 (Homo sapiens, SK-HEP1, 72 h, SKHEP1 cell line (liver)): < 4.30; pIC50 (Homo sapiens, SK-LMS-1, 72 h, SKLMS1 cell line (uterus)): 6.33; pIC50 (Homo sapiens, SK-MEL-5, 72 h, SKMEL5 cell line, skin): < 4.30; pIC50 (Homo sapiens, SK-MEL-28, 72 h, SKMEL28 cell line (skin)): 5.90; pIC50 (Homo sapiens, SK-N-AS, SKNAS cell line (brain)): 5.94; pIC50 (Homo sapiens, SK-N-SH, SKNSH cell line (brain)): 6.12; pIC50 (Homo sapiens, SK-OV-3, 72 h, SKOV3 cell line (ovary)): 6.12; pIC50 (Homo sapiens, SNB-75, 72 h, SNB75 cell line (brain)): 5.63; pIC50 (Homo sapiens, SU-DHL10, 72 h, SU-DHL-10 cell line (hematological)): 6.92; pIC50 (Homo sapiens, SU-DHL-6, 72 h, SU-DHL-6 cell line (hematological)): 6.37; pIC50 (Homo sapiens, SW-620, 72 h, SW620 cell line (colon)): 6.14; pIC50 (Homo sapiens, T-24, 72 h, T24 cell line (bladder)): 5.84; pIC50 (Homo sapiens, TE-671, 72 h, TE671 cell line (muscle)): 5.32; pIC50 (Homo sapiens, THP-1, 72 h, THP-1 cell line (hematological)): < 4.30; pIC50 (Homo sapiens, U-87 MG, U87MG cell line (brain)): < 4.30; pIC50 (Homo sapiens, UMUC3, 72 h, UMUC3 cell line (bladder)): < 4.30; pIC50 (Homo sapiens, UO-31, 72 h, UO31 cell line (kidney)): 6.20; pIC50 (Homo sapiens, WSU-NHL, WSU-NHL cell line (hematological)): 6.14; pIC50 (MT-3, 72 h, MT3 cell line (breast)): 6.29; pIC50 (NCI-H358M, NCIH358M cell line (lung)): 6.25; pIC50 (PBMC, PBMC (hematological)): 6.51; pIC50 (RD-ES, RDES cell line (bone)): 6.39
